{"source": "patent US20170105951A1", "about": "“COMBINATION THERAPY WITH THIOCOLCHICINE DERIVATIVES” (Abraxis BioScience, LLC, priority 2009, published 2017)", "key": {"[1]": {"test_system": "quail embryonic CAM vasculature", "experiment": "Shell-less quail embryonic CAM assay, vascular disrupting activity", "type": "in vivo", "protocol": "(§1) Methods: The antiangiogenic and VDA effects of ABI-011 were examined in vitro using tubule formation assay with human umbilical vein endothelial cells (HUVEC) and in vivo using the standard chick embryonic chorioallantoic membrane (CAM) assay with 3-day old embryos (n=18). The shell-less quail embryonic CAM assay was used to determine the time course of VDAs (ABI-011 vs. combretastatin A4 Phosphate [CA4P]). Quail embryos (n=36) were exposed to ABI-011 (1 to 16 μg/ml) on day 7 and digital CAM images were acquired over a 60 min period for scoring VDA. Subcutaneous human colon (HT29) tumors were grown in athymic nude mice and treated intravenously (IV) with ABI-011 (20-40 mg/kg; q4d×3, IV) or CA4P (200 mg/kg; qd×4, IV). The animal weights and tumor measurements were recorded three times weekly and adverse observations recorded."}, "[2]": {"test_system": "human colon (HT29) tumors", "experiment": "Subcutaneous HT29 colon tumor xenograft, ABI-011 vs CA4P (Example 3)", "type": "in vivo, athymic nude mice", "settings": "CA4P 200 mg/kg, qd×4, IV", "protocol": "as §1"}, "[3]": {"experiment": "Body weight change in PC3 tumor-bearing mice", "type": "in vivo, athymic nude mice", "settings": "Avastin 8 mg/kg 2x/wk", "protocol": "(§2) Methods: Subcutaneous human breast (MDA-MB-231), colon (HT29) and prostate (PC3) tumors were grown in athymic nude mice and treated intravenously (IV) with sub-optimal dose of ABI-011 alone at 20 mg/kg (q4d×3, q4d×2, or qd×1) and in combination with nab-paclitaxel (5 mg/kg, q4d×3, IV) or bevacizumab (8 mg/kg, 2×wkly, IP). The effect of dose, schedule, and sequence of combination regimen on therapeutic efficacy was tested. ABI-011 was administered 24 h before, concurrent with, or 24 h after nab-paclitaxel or bevacizumab treatment."}, "[4]": {"test_system": "human PC3 prostate cancer xenograft", "experiment": "Subcutaneous PC3 prostate tumor xenograft, tumor growth inhibition", "type": "in vivo, athymic nude mice", "settings": "Avastin 8 mg/kg 2x/wk", "protocol": "as §2"}, "[5]": {"test_system": "human HT29 colon cancer xenograft", "experiment": "Subcutaneous HT29 colon tumor xenograft, antitumor activity (Example 1)", "type": "in vivo, athymic nude mice", "settings": "Avastin 8 mg/kg 2x/wk", "protocol": "as §2"}}, "data": [{"compound": "COc1ccc(/C=C\\c2cc(OC)c(OC)c(OC)c2)cc1OP(=O)(O)O", "note": "[CA4P, combretastatin A4 Phosphate]", "values": [{"measurement": "Vascular disrupting activity (VDA), in words", "setting": "[1]; quail CAM, at concentrations much higher than the effective dose of ABI-011", "value": "only modest VDA"}, {"measurement": "IC50, vascular disrupting activity (VDA)", "setting": "[1]; quail embryonic CAM, scored over 60 min", "value": 13.1, "unit": "µg/mL"}, {"measurement": "LD50, embryonic mortalities", "setting": "[1]; quail embryos", "value": 12.8, "unit": "µg/mL"}, {"measurement": "Antitumor efficacy, in words", "setting": "[2]", "value": "ineffective"}]}, {"compound": "Avastin: anti-VEGF antibody (bevacizumab)", "values": [{"measurement": "BWC, percent body weight change on day 21", "setting": "[3]", "value": "−24.6", "unit": "%"}, {"measurement": "TGI, tumor growth inhibition on day 23", "setting": "[4]", "value": 52.9, "unit": "%"}, {"measurement": "TGI, tumor growth inhibition on day 23", "setting": "[5]", "value": 75.3, "unit": "%"}, {"measurement": "Three-TDT", "setting": "[5]", "value": 19.3, "unit": "days"}]}]}
